The text below walks through data of patent publication US20060105393A1, “Ligand-receptor tracking assays” (priority 2004, published 2006).

Experiment [1] has as its target T1, GHSR-1a receptor (Homo sapiens, UniProt Q92847).
T1 construct: expressed in transfected cells
Kind of experiment: Internalization of GHSR-1a with Ghrelin(1-19)-Texas Red (high content ligand tracking). The experiment is classed as cell-based. The settings on record: 1 μM competitor, 10 nM Ghrelin(1-19)-Texas Red, 30 minutes at 37° C. (FIG. 7).

Experiment [2] has as its target T2, SSTR-5 (Homo sapiens, UniProt P35346).
T2 construct: expressed in transfected cells
Put plainly: Multiplexed internalization assay, SSTR-5 readout (Atto590-SST14) in mixed NK3R and SSTR5 cells. The class given is cell-based. The settings on record: for SSTR-5 internalization with excess competitor: 1 μM competitor (FIG. 5).

Experiment [3] concerns the target T3, NK3R (Homo sapiens, UniProt P29371).
T3 sequence (P29371 1-465): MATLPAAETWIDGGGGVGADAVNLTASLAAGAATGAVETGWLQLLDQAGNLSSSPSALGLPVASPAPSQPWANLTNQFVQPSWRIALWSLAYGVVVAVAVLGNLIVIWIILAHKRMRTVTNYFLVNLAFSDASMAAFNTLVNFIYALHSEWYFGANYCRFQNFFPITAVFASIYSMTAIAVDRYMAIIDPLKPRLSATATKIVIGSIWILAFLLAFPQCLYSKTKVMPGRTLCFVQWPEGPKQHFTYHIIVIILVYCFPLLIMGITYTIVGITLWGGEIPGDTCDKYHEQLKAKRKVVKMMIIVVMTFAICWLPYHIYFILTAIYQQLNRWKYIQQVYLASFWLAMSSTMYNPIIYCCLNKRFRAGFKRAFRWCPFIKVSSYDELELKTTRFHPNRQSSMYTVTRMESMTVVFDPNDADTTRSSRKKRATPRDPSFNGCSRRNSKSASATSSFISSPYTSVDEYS
The settings on record: mixed cells.

Experiment [4] addresses T3, NK3R. The settings on record: 1 μM competitor, 1 nM Atto655-NKB, 30 minutes at 37° C. (FIG. 3).
The target in experiment [5] is hV1bR (Homo sapiens, UniProt P47901). The settings on record: 100 nM competitor, 5 nM BO-TMR-vasopressin, 30 minutes at 37° C. (FIG. 9).
Experiment [6] addresses recombinant human Somatostatin receptor 5 (Homo sapiens, UniProt P35346). As to conditions: 1 μM competitor, 100 nM Atto590-SST14, 30 minutes at 37° C. (FIG. 1).

T2 sequence (P35346 whole entry): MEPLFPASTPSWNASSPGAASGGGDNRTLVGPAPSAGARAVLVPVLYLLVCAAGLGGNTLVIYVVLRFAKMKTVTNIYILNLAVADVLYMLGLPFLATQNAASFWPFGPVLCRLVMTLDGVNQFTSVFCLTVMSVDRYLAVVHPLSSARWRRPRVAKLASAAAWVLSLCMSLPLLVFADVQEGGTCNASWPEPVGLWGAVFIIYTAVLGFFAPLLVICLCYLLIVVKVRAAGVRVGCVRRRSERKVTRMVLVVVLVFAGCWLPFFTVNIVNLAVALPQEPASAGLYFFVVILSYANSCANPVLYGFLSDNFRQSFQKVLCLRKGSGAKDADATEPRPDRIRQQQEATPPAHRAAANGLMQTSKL
T1 sequence (Q92847 whole entry): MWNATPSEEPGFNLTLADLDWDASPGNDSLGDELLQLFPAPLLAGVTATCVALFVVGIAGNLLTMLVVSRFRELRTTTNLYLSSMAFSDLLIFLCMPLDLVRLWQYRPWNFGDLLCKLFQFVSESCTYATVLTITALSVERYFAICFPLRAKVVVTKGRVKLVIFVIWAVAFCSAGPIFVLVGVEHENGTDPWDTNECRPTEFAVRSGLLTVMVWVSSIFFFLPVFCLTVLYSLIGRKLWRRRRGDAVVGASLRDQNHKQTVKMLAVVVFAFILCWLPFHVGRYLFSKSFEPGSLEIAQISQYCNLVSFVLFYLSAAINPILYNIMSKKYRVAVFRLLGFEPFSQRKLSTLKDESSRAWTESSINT
Chain of hV1bR (P47901 whole entry): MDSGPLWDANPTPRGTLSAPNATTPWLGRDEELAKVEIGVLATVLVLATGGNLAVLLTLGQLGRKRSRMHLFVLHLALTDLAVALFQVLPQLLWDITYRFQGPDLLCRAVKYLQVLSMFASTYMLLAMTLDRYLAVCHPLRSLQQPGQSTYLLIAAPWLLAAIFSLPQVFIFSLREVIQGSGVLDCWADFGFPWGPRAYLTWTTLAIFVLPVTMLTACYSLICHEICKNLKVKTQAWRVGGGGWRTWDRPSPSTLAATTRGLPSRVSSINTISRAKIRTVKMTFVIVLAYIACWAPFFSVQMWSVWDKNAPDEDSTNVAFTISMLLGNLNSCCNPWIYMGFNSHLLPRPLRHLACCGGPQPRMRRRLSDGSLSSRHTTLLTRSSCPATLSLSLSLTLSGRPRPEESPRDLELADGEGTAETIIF
Chain of recombinant human Somatostatin receptor 5 (P35346 whole entry): as the sequence (P35346 whole entry) above

Regarding `CC(C)(N)C(=O)N[C@H](COCc1ccccc1)C(=O)N1CCC2(CC1)CN(S(C)(=O)=O)c1ccccc12` [MK0677], the “formation of fluorescent ERCs on co-incubation with excess competitor” value (from here on “formation of fluorescent ERCs”) in experiment [1] was “blocked the formation of fluorescent ERCs”.
For the compound `CC[C@H](NC(=O)c1c(C)c(-c2ccccc2)nc2ccccc12)c1ccccc1` [SB222200], the “SSTR-5 internalization with excess competitor” value in experiment [2] was “no effect”. For the same compound, the “amount of internalized Atto590-SST14 with increasing amount of competitor” value in experiment [2] (dose response (FIG. 6)) is given as “unaffected”. Further, in experiment [3] (1 μM competitor (FIG. 5)), the “NK3R mediated internalization of fluorescent ligand with excess competitor” value is “blocked”. Further, in experiment [4], the “formation of fluorescent ERCs” value was “blocked the formation of fluorescent ERCs”.
Turning to Arg-8-Vasopressin, the “formation of fluorescent ERCs” value in experiment [5] is reported as “blocked the formation of fluorescent ERCs in most cells”.
As for Somatostatin-14 [SST14], in experiment [6], the “formation of fluorescent ERCs” value is listed as “block the formation of fluorescent ERCs”. The “SSTR-5 internalization with excess competitor” value in experiment [2] was “inhibited in a selective manner”. Besides, the “intensity of Atto655-NKB in ERCs with increasing amount of competitor” value in experiment [3] (dose response (FIG. 6)) is “unchanged”.
